Read-outs that look alike come from different tables or passages of the source.
Tests used:
[1] = test system: trypsin; settings: read-out: IC50 trypsin inhibition; cited from earlier work
[2] = test system: plasmin; parameters: method as in PMID 20405925; settings: read-out: IC50 plasmin inhibition; cited from earlier work
[3] = test system: CDCP1 cleavage in MDA-MB-231 cells; parameters: method as in PMID 22543582; settings: positive control, through upregulation of PAI-1; cited from earlier work
[4] = biological target: T1, trypsin from porcine pancreas (Sus scrofa, UniProt P00761); test: Trypsin inhibition assay; assay type: biochemical; settings: mean ± SD, n = 3; 30-min preincubation; read-out: IC50 against trypsin
T1 construct: purchased Sigma T0303; host or cells: porcine pancreas
Method: The trypsin inhibition assay was carried out at room temperature by incubating 10 µL of trypsin from porcine pancreas (T0303, Sigma, St. Louis, MO, USA) (100 µM prepared in assay buffer) with 39 µL of assay buffer (50 mM Tris-HCl, 100 mM NaCl, 1 mM CaCl2; pH 7.8) in the presence of 1 µL of different concentrations of inhibitors (2 and 3; half log dilutions prepared in DMSO) or the solvent control. After a 30-min incubation time, 50 µL of the 1.5 mM substrate: Nα-benzoyl-DL-arginine-4-nitroanilide (prepared as 2 mM stock solution in DMF and further diluted to 1.5 mM in assay buffer) were added to each well. The reaction was monitored by measuring the absorbance at 405 nm every 30 s for 30 min using SpectraMax M5 plate reader (Molecular Devices, Sunnyvale, CA, USA).

[5] = biological target: T2, plasmin from human plasma (Homo sapiens, UniProt P00747); test: Plasmin inhibition assay; assay type: biochemical; settings: mean ± SD, n = 3; 30-min preincubation; read-out: IC50 against plasmin
T2 construct: purchased Sigma P1867; host or cells: human plasma
Method: The plasmin inhibition assay was carried out by incubating 5 µL of […] plasmin from human plasma (P1867, Sigma, St. Louis, MO, USA) with 1 µL of different concentrations of inhibitors (2 and 3; half log dilutions prepared in DMSO) or the solvent control in the presence of 89 µL assay buffer (0.05 M Tris-HCl, pH 8.9). After a 30-min incubation time, 5 µL of 1.7 mM substrate solution (N-p-Tosyl-D-Gly-Pro-Lys-4-nitroanilide acetate salt; prepared in assay buffer) were added to each well. The reaction was monitored by measuring the absorbance at 405 nm every 30 s for 30 min using the SpectraMax M5 plate reader (Molecular Devices).

[6] = biological target: T3, recombinant human matriptase (Homo sapiens, UniProt Q9Y5Y6); test: Matriptase inhibition assay; assay type: biochemical; settings: mean ± SD, n = 3; 15-min preincubation; read-out: IC50 against matriptase
T3 construct: purchased R&D Systems 3946-SE-010
T3 sequence (Q9Y5Y6 615-855 limits assumed): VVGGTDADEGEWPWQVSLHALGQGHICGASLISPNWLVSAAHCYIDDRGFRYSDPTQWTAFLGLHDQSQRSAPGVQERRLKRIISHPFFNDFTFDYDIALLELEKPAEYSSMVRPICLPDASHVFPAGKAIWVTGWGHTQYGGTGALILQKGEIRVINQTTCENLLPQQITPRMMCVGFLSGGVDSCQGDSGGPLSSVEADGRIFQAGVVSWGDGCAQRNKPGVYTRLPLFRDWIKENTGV
Method: In matriptase inhibition assay, 50 µL of recombinant human matriptase (R&D Systems, Minneapolis, MN, USA; 3946-SE-010) ([…] prepared in assay buffer: 50 mM Tris, 50 mM NaCl, 0.01% Tween 20; pH 9.0) and 1 µL of different concentrations of inhibitors (2 and 3; half log dilutions prepared in DMSO) or the solvent control were pre-incubated at room temperature for 15 min. Following the incubation period, 50 µL of the 50 µM substrate solution (Boc-Gln-Ala-Arg-AMC) (R&D Systems, Minneapolis, MN, USA; ES014) were added to each well, and the enzyme activity was monitored by measuring the increase in fluorescence signal from the fluorescently-labeled substrate every 30 s for 30 min (Ex 380 nm, Em 460 nm) using the SpectraMax M5 plate reader (Molecular Devices).

[7] = Cell viability assay (MTT); assay type: cell-based; settings: human, MDA-MB-231 breast cancer cells; MDA-MB-231, 48 h, all concentrations tested (32 µM to 320 pM)
Method: MDA-MB-231 cells were seeded in 96-well plates (10,000 cells/well). After 24 h of incubation, the cells were treated with different concentrations of kempopeptins B or C (2 or 3) or the solvent control (DMSO). Following 48 h of incubation, cell viability was measured using 3-(4,5-dimethylthiazol-2-yl)-2,5-diphenyltetrazolium bromide according to the manufacturer's instructions (Promega, Madison, WI, USA).
Effect of kempopeptins on the viability of MDA-MB-231 cells
Kempopeptin C Kempopeptin B
Figure S1. Effect of kempopeptins B and C (2) and (3) on the viability of MDA -MB-231 breast cancer cells.

[8] = test system: CDCP1 cleavage in MDA-MB-231 cells; test: Cleavage of CDCP1 in MDA-MB-231 cells (Western blot); assay type: cell-based; settings: 72 h, different concentrations
Method: The experiment was performed by treating MDA-MB-231 cells with different concentrations of either kempopeptin B (2) or C (3) for 72 h (Figure 6A). Dexamethasone (Dex) 100 nM was used as a positive control.
Figure 6 The effect of kempopeptins B and C (2 and 3) on CDCP1 cleavage in MDA-MB-231. (A) MDA-MB-231 cells were treated for 72 h with different concentrations of the test compounds. Following 72 h, the lysates were collected and analyzed by Western blot. (B) MDA-MB-231 cells were treated at different time points with 100 µM of kempopeptin C (3). Following 6 h, 12 h and 24 h, the lysates were collected and analyzed by Western blot. Dexamethasone (Dex) was used as a positive control. (C) MDA-MB-231 cells treated for 24 h with different concentrations of 3 in the presence of 10 nM recombinant human matriptase. Cell lysates were harvested and analyzed by Western blot. (D) Densitometric analysis of the full-length, LMW of CDCP1 and actin bands in (C).
MDA-MB-231 cells (150,000 cells/well) were seeded in 12-well plates. After 24 h, the media were replaced, and cells were treated with different concentrations of inhibitors (2 or 3; prepared in DMSO), the solvent control or the positive control dexamethasone. Whole-cell protein lysates were collected after 6, 12, 24 and 72 h using PhosphoSafe lysis buffer (Novagen, Madison, USA) and the protein concentration measured using the BCA Protein Assay kit (Pierce; 23227; Thermofisher Scientific; Waltham, MA, USA). Twenty micrograms of protein were separated by SDS-PAGE, transferred to polyvinylidene difluoride (PVDF) membranes, probed with CDCP1 antibody (Cell Signaling; 4115S) and detected with SuperSignal West Femto Maximum Sensitivity Substrate (Pierce).

[9] = biological target: elastase; parameters: method as in PMID 18693761; settings: cited from earlier work
[10] = test system: chymotrypsin; parameters: method as in PMID 18693761; settings: cited from earlier work

T2 sequence (P00747 581-810 limits assumed): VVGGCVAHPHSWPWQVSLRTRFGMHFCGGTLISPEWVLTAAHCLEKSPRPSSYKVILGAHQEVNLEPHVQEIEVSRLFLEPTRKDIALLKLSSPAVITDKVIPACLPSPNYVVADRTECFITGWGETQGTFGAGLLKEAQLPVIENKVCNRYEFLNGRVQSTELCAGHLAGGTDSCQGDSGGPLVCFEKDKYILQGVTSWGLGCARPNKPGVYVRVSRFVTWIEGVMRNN
T2 sequence (P00747 98-580 partner limits assumed): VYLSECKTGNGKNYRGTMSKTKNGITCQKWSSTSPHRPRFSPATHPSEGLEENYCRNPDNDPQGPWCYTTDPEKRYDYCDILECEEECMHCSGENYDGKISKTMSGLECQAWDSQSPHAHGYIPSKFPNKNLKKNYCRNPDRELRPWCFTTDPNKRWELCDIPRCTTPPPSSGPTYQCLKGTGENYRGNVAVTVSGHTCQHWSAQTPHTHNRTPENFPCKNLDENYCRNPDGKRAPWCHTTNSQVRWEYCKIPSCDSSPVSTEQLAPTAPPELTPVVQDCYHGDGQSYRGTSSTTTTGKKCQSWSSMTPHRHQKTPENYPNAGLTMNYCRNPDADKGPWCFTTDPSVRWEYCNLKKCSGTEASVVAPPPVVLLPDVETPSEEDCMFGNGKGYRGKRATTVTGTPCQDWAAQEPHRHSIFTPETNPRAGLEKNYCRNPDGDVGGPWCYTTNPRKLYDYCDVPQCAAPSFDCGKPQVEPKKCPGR
T1 sequence (P00761 9-231): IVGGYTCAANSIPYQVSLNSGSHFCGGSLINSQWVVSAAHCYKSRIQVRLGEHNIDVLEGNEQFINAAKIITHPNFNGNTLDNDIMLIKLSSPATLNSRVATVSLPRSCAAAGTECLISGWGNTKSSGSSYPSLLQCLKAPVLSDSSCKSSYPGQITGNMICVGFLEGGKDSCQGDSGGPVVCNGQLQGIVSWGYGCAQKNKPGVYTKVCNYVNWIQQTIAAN

In the case of `CCCCCC(=O)N[C@@H](CCC(=O)O)C(=O)N[C@@H]1C(=O)N[C@@H](CCCNC(=N)N)C(=O)N[C@H]2CC[C@@H](O)N(C2=O)[C@@H](Cc2ccccc2)C(=O)N(C)[C@@H](Cc2ccc(O)cc2)C(=O)N[C@@H](C(C)C)C(=O)O[C@@H]1C` [Cyanopeptolin 1020, cyanopeptolin 1020], the IC50 [1] is listed as 0.67 nM and the IC50 [2] is listed as ~490 nM.

In the case of `CC(C)C[C@@H](NC(=O)[C@H](O)COS(=O)(=O)O)C(=O)N[C@@H]1C(=O)N[C@@H](CCCNC(=N)N)C(=O)N[C@H]2CC[C@@H](O)N(C2=O)[C@@H](CC(C)C)C(=O)N(C)[C@@H](Cc2ccc(O)cc2)C(=O)N[C@@H](C(C)C)C(=O)O[C@@H]1C` [Compound A90720A, A90720A], the IC50 [1] is given as ~10 nM.

In the case of `CCCC(=O)N[C@@H](CCC(N)=O)C(=O)N[C@@H]1C(=O)N[C@@H](CCCNC(N)=O)C(=O)N[C@H]2CC[C@@H](O)N(C2=O)[C@@H]([C@@H](C)CC)C(=O)N(C)[C@@H](Cc2ccc(OC)c(Br)c2)C(=O)N[C@@H](C(C)C)C(=O)O[C@@H]1C` [Symplocamide A, symplocamide A], the IC50 [1] is listed as ~80000 nM.

For `C[C@@H]1C[C@H]2[C@@H]3CCC4=CC(=O)C=C[C@]4(C)[C@@]3(F)[C@@H](O)C[C@]2(C)[C@@]1(O)C(=O)CO` [Dexamethasone], the “Effect on cleavage of full-length CDCP1” value [3] is listed as “blocks the cleavage of the full-length CDCP1”.

`CCCC(=O)N[C@H](C(=O)N[C@@H]1C(=O)N[C@@H](CCCCN)C(=O)N[C@H]2CC[C@@H](O)N(C2=O)[C@@H]([C@@H](C)CC)C(=O)N(C)[C@@H](Cc2ccc(OC)c(Br)c2)C(=O)N[C@@H](C(C)C)C(=O)O[C@@H]1C)C(C)C` [Kempopeptin B, kempopeptin B] gave an IC50 [4] of 1490 ± 180 nM, an IC50 [5] of 1050 ± 190 nM and an IC50 [6] of 1830 ± 190 nM. The viability at 48 h [7] was > 90%, the “Inhibition of CDCP1 cleavage in MDA-MB-231” value [8] was “No inhibition of CDCP1 cleavage was observed” and the IC50 ([9]; read-out: IC50 against elastase) was > 67000 nM. The IC50 ([10]; read-out: IC50 against chymotrypsin) was > 67000 nM.

For `CC(=O)N1CCC[C@H]1C(=O)N[C@H](C(=O)N[C@@H]1C(=O)N[C@@H](CC(C)C)C(=O)N[C@H]2CC[C@@H](O)N(C2=O)[C@@H](Cc2ccccc2)C(=O)N(C)[C@@H](Cc2ccc(O)cc2)C(=O)N[C@@H](C(C)C)C(=O)O[C@@H]1C)[C@@H](C)O` [Kempopeptin A, kempopeptin A], the IC50 ([9]; read-out: IC50 elastase inhibition) is listed as 320 nM and the IC50 ([10]; read-out: IC50 chymotrypsin inhibition) is listed as 2600 nM.

Reference: publication PMC5618429, “Kempopeptin C, a Novel Marine-Derived Serine Protease Inhibitor Targeting Invasive Breast Cancer” (Marine Drugs, 2017)
